Key:
Type in all cases: cell-based, Human
[1] = test system: 697-neo and 697-Bcl-2 cell lines; test: Annexin V/PI viability in 697-neo and 697-Bcl-2 cells; settings: 24 hours
Procedure: Cells: Blood was obtained from patients with B-cell CLL with informed consent under a protocol approved by the hospital internal review board. All patients examined in this series had immunophenotypically defined CLL as outlined by the modified 96 National Cancer Institute criteria. B-CLL cells were isolated from freshly donated blood using ficoll density gradient centrifugation (Ficoll-Paque Plus, Amershan Biosciences, Piscataway, N.J.). Isolated mononuclear cells were incubated in RPMI 1640 media (Gibco/Invitrogen, Carlsbad, Calif.) supplemented with 10% heat-inactivated fetal bovine serum (FBS, Hyclone Laboratories, Logan, Utah), 2 mM L-glutamine (Invitrogen, Carlsbad, Calif.), and penicillin (100 U/mL)/streptomycin (100 μg/ml) [Sigma-Aldrich, St. Louis] at 37° C. in an atmosphere of 5% CO2. Freshly isolated B-CLL cells were used in all experiments described herein. […]
Analysis of cell viability and apoptosis: The cell viability was carried out by dual staining with Annexin V conjugated to flourescein-isothyocyanate (FITC) and Propidium iodide (PI) as described previously. Briefly, 1×10^6 cells were stained with Annexin V-FITC (BD Pharmingen) and Propidium iodide (BD Pharmingen) for 15 minutes in dark and analyzed by flow cytometry using a Beckman-Coulter EPICS XL cytometer (Beckman-Coulter, Miami, Fla.). […]

ERK1/2 = test: Western blot of ERK1/2 phosphorylation in Mino cells
Procedure: Binding of FTY720 accelerates homing of peripheral lymphocytes to lymph node and activation of […] leads to extracellular signal-related kinase 1/2 (ERK1/2) phosphorylation. To determine if FTY720 influenced phosphorylation status of ERK-1, Mino cells were treated with FTY720 and the ERK1/2 phosphorylation status was analyzed by westernblot analysis using phospho ERK-1/2 and ERK1/2 antibodies. […] Similar FTY720 induced time dependent phosphorylation of ERK1/2 was also observed in Jeko cell line (Data not shown). FTY720 induced activation Ras-Raf-MAP kinase signaling pathway resulting in activation of serine/threonine kinase may contribute to ERK1/2 phosphorylation. Consistent with hypothesis ERK1/2 phosphorylation has been reported to occur in cells treated with Sphingosie 1-phosphate, that shares structural similarity to FTY72014. The role of FTY720 induced Erk1/2 phosphorylation in either toxicity, deregulation of the proteins such as Cyclin D1 or Akt and/or accumulation cells in G1 with concomitant decrease in S phase remains to be tested. Nevertheless these studies have identified Cyclin D1 and Akt proteins as two potential biomarkers for FTY720 responsiveness in MCL patient cells.

Mino cells = test: Annexin V/PI toxicity in Mino cells; settings: Homo sapiens, WinNolin sigmoid inhibitory model
Procedure: Primary MCL cells were isolated from PBMC (with informed patient consent under a protocol approved by IRB) as described before. All the MCL patients were identified as outlined by the World Health Organization (WHO) classification. Human mantle cell lymphoma patient cell lines (Mino and Jeko) were obtained from Dr. Raymond Lai. Primary cells or MCL cell lines were incubated in RPMI 1640 media, supplemented with 10%-20% heat-inactivated fetal bovine serum, 2 mM L-glutamine and penicillin (100 U/mL)/streptomycin ([…]) at 37° C. in an atmosphere of 5% CO2. FTY720 was synthesized as previously described. Toxicity was determined by flow cytometry using Annexin-V-FITC and Propidium Iodide (PI) staining. Apoptotic cells were identified as Annexin-V+ and/or PI+ cells. Cells excluding both FITC and PI were considered viable. Western Blotting was performed as described previously using indicated antibodies. The PARP (Ab-2) and Caspase 9 antibodies were purchased from Oncogene/Calbiochem/EMD Biosciences (San Diego, Calif.). Cyclin D1, Akt, Actin, Mcl-1, p-ERK, ERK and Bcl-2 were obtained from Santa Cruz biotech (Santa Cruz, Calif.).
Several therapeutic agents, including fludarabine, chlorambucil, 2-chloro-2-deoxyadenosine and glucocorticoids, induce toxicity in B cell malignancies through activating caspases, the cysteine proteases of CED3/ICE family. Inhibition of these caspases results in abrogation of apoptosis mediated by the toxic stimuli. To determine if caspase activation is involved in FTY720-induced cytotoxicity in MCL, we pretreated Mino cells with 150 μM broad spectrum caspase inhibitor z-VAD-fmk. […] Activation of caspases results in cleavage of key cellular proteins including poly-ADP-ribose polymerase (PARP).

Compound: CCCCCCCCc1ccc(CCC(N)(CO)CO)cc1.Cl [FTY720, 2-Amino-2-[2-(4-octylphenyl)ethyl]propane 1,3-diol hydrochloride]
- cellular cytotoxicity in 697-neo versus 697-Bcl-2 over expressing cell line [1]: comparable levels of cellular cytotoxicity
- earliest time of ERK1/2 phosphorylation (ERK1/2): 2 h
- time of maximal ERK1/2 phosphorylation (ERK1/2): 4 h
- IC50 (Mino cells): 11.9 µM
